{"source": "paper PMC9898191", "about": "(Nature chemical biology, 2022)", "key": {"Syk in MV4-11 cells": {"target": "Syk in MV4-11 cells (Homo sapiens, UniProt P43405)", "assay": "WC36B-streptavidin pull down assay with immunoblotting", "type": "binding"}, "[1]": {"tested_on": "PM translocation of EGFP-Syk WT in Syk−/− DT40 cells", "assay": "Subcellular localization of EGFP-Syk WT in IgM-stimulated Syk-null DT40 cells", "type": "cell-based", "details": "10 nM overnight"}, "[2]": {"tested_on": "WC36B-binding cellular proteins of MV4-11 cells", "assay": "Mass spectrometry-based proteomics of WC36B-binding cellular proteins", "design": "species or system human", "details": "biotin as negative control"}, "[3]": {"tested_on": "ZAP-70 phosphorylation in Jurkat T cells", "assay": "Western blot of ZAP-70 phosphorylation in Jurkat T cells", "type": "cell-based", "details": "5 μM overnight, OKT3 stimulated"}, "HL60 cells": {"tested_on": "HL60 cells", "assay": "XTT cell proliferation assay, HL-60 cells", "type": "cell-based"}, "[4]": {"tested_on": "phosphorylation of Syk, ERK1/2 and STAT3/5 in entospletinib-resistant MV4-11 cells", "details": "5 μM"}, "[5]": {"tested_on": "phosphorylation of ERK1/2 and STAT3/5 in RAS-mutated HL60 cells", "assay": "Western blot of IgG2-stimulated phosphorylation in HL-60 cells", "type": "cell-based", "details": "5 μM"}}, "data": [{"molecule": "Nc1ncnc2c1ncn2[C@@H]1O[C@H](COP(=O)(O)OP(=O)(O)OP(=O)(O)O)[C@@H](O)[C@H]1O", "note": "[ATP]", "values": [{"measurement": "competition with WC36B for Syk binding", "setting": "Syk in MV4-11 cells; WC36 10 μM, entospletinib 10 μM, ATP 1 mM", "result": "only WC36 was able to compete"}]}, {"molecule": "CS(=O)(=O)N1CCN(Cc2cc3nc(-c4cccc5[nH]ncc45)nc(N4CCOCC4)c3s2)CC1", "note": "[GDC-0941]", "values": [{"measurement": "PM translocation of EGFP-Syk WT", "setting": "[1]", "result": "greatly suppressed"}]}, {"molecule": "[N-]=[N+]=C(C(=O)NCCNC(=O)CCCC[C@H]1SC[C@H]2NC(=O)N[C@H]21)C(Nc1ncccn1)c1c[nH]c2ccccc12", "note": "(some centres unmarked) [WC36B]", "values": [{"measurement": "proteins captured compared with biotin control", "setting": "[2]", "result": "Syk is the single major protein"}, {"measurement": "capture of Syk by streptavidin beads pulldown", "setting": "Syk in MV4-11 cells; MV4-11 cells, 5 μM, 24 h", "result": "targets Syk"}]}, {"molecule": "c1cn2cc(-c3ccc4cn[nH]c4c3)nc(Nc3ccc(N4CCOCC4)cc3)c2n1", "note": "[entospletinib]", "values": [{"measurement": "inhibition of ZAP-70 phosphorylation", "setting": "[3]", "result": "significantly inhibited"}, {"measurement": "suppression of proliferation (XTT assay)", "setting": "HL60 cells", "result": "ineffective"}, {"measurement": "inhibition of phosphorylation of Syk, ERK1/2 and STAT3/5", "setting": "[4]", "result": "could not inhibit phosphorylation"}, {"measurement": "suppression of phosphorylation of ERK1/2 and STAT3/5", "setting": "[5]", "result": "could not suppress phosphorylation"}]}]}
